{
  "source": "patent US12558400B2",
  "about": "“Method of treatment of soft tissue sarcoma with a peptide comrpising a PCNA interacting motif” (THERAPIM PTY LTD, priority 2020, dated 2026)",
  "key": {"[1]": {"system": "patients with advanced solid tumors", "assay": "Phase I safety and tolerability study of ATX-101 (studies ATX101-01 and -02)", "format": "in vivo", "procedure": "A Phase I, open-label, single arm, safety and tolerability study was conducted (study ATX101-01) which evaluated escalating dose cohorts of ATX-101 (SEQ ID NO: 914) in patients with advanced solid tumors. The study was designed to systematically assess safety and tolerability, and to identify the Maximum Tolerated Dose (MTD) and recommended Phase II dose for ATX-101. Pharmacokinetics and preliminary efficacy (anti-tumor activity) were also assessed.\nIf at the end of the 6-week Phase I study (study ATX101-01) the patient's tumor didn't show signs of progression, treatment could be continued in a long-term follow-up study (study ATX101-02) until disease progression or other reasons for treatment discontinuation, e.g. withdrawal of consent.\nFour dose levels (20, 35, 45 and 60 mg/m^2 of body surface area calculated based on the height and weight of patients) of intravenous ATX-101 (net peptide, excluding the mass of the salt component) were tested in the Phase I study (study ATX101-01). ATX-101 was administered via IV infusion over at least 1 hour either using a constant infusion rate or an adaptable infusion rate scheme starting with 5 mg/hr and increasing the infusion flow rate every 30 minutes, as outlined in the infusion rate table below (Table 1). […] Doses of 45 and 60 mg/m^2 were administered in 500 mL.\nTreatment was administered weekly in cycles of 21-day duration, with a single IV infusion of ATX-101 on Day 1, 8 and 15 of each cycle. Dosing of patients occurred weekly for up to two cycles (i.e. 2×21 days=6 weeks).\nFollowing the initial 6 weeks of treatment in the Phase I study (study ATX101-01), patients could continue the treatment in the long-term follow-up study (study ATX101-02). These patients, that received the same dose regimen as in study −01, were treated for up to 15.6 months.\nSafety: Incidence, severity, and duration of treatment-emergent adverse events (TEAEs) and treatment related TEAEs were assessed according to Common Terminology Criteria for Adverse Events (CTCAE) v4.03."}, "[2]": {"assay": "Solubility of the peptide drug substance", "format": "physicochemical", "details": "water and aqueous media; hydrochloride salt", "from_the_text": "The product was available as a hydrochloride salt (chloride counter-ion is ionically bound to the basic side chains of the peptide; 18 mol/mol peptide, theoretically; Molecular formula: C158H285N71O29S, 18 HCl; Relative molecular mass: […]. Free base: 3673.3)."}},
  "note": "Where no end group is shown, it is not given here.",
  "data": [
    {"substance": "Ac-MDRWLVKWKKKRKIRRRRRRRRRRR (N-terminus assumed) [ATX-101]", "values": [
      {"measurement": "treatment related deaths", "setting": "[1]; 22 patients, weekly IV infusion, all dose levels (20-60 mg/m^2)", "result": "No treatment related deaths"},
      {"measurement": "course of infusion-related reactions after repeated doses", "setting": "[1]; in vivo", "result": "did not worsen"},
      {"measurement": "Dose Limiting Toxicities (DLTs)", "setting": "[1]; in vivo, iv", "result": "no Dose Limiting Toxicities"},
      {"measurement": "infusion-related reactions (IRR) Grade 1 or 2, proportion of patients", "setting": "[1]; in vivo, iv", "result": 73, "unit": "%"},
      {"measurement": "treatment discontinuation due to treatment related toxicity", "setting": "[1]; in vivo, iv", "result": "no treatment discontinuation due to treatment related toxicity"},
      {"measurement": "treatment related serious adverse event or severe adverse event", "setting": "[1]; in vivo, iv", "result": "no treatment related serious adverse event or severe adverse event"},
      {"measurement": "solubility", "setting": "[2]", "result": "freely soluble"}
    ]}
  ]
}
